What was measured:
human B cells = conditions: cited from earlier work
ApoE-/- mice [1] = assay: Atherosclerotic changes in high fat diet ApoE-/- mice (Sudan IV en-face, Paigen method, trichrome); type: in vivo, mouse
Protocol: ApoE−/− mice were fed a high fat diet for 16 weeks. Mice were randomly assigned to receive dose of 1 mg/kg of KGYY6 (6-mer-SEQ ID NO:29) by IV tail injection, once a week for a period of 4 weeks. Control mice received vehicle only. Atherosclerosis was investigated by several methods. […] FIG. 28A is an image of KGYY6 treated aortic en-face Sudan IV staining and FIG. 28B is an image of control (untreated) aortic en-face Sudan staining.
Further, measurement of plaque area and morphology was performed using the Paigen method. This method obtains sequential 5 μm aortic cross sections from the aortic root beginning at the valve leaflets into the ascending aorta. At 50 μm intervals, slides are stained after which the area of atherosclerotic lesion is measured. Individual plaque area measurements are plotted against the micrometer intervals and a curve is established, with the area under the curve (AUC) giving the total volume of plaque.

Th40 cells = assay: Cytokine production of splenic lymphocytes (Th40 cells) treated in vitro, flow cytometry; type: cell-based, mouse; conditions: splenic lymphocytes of ApoE-/- and C57BL/6 mice, 24 hours in vitro, varying concentrations
Protocol: Spleens from ApoE mice and C57BL/6 mice were processed for lymphocytes. ApoE−/− and C57BL/6 mice were fed a 60% high fat diet (research diet) for 1 week. Splenic lymphocytes were treated with 6-mer in vitro for 24 hours. Cells were placed in media overnight in the presence of varying concentrations of 6-mer peptides. The following morning. Brefeldin A was administered for 4 hours. All cells were stained for CD3, CD4, CD40 (Th40 cells) and measured by use of flow cytometry for their production of IL2, INFγ, and IL17a.

GLUT4 = assay: Western analysis of GLUT4 in adipose and muscle tissue of treated mice; type: in vivo, mouse; conditions: treated versus untreated mice
Text: GLUT4 is responsible for glucose uptake in response to insulin and known to have reduced expression in type 2 diabetes.

ApoE-/- mice [2] = assay: LDL cholesterol in ApoE-/- mice; type: in vivo, mouse; conditions: 1 mg/kg IV once a week for 4 weeks
Protocol: In this study, six ApoE−/− mice received a normal chow diet from 0 to 20 weeks of age. At 20 weeks of age, three mice were randomly assigned to receive dose of 1 mg/kg of KGYY6 (6-mer-SEQ ID NO:29) by IV tail injection, once a week for a period of 4 weeks. Control mice received vehicle only.

ApoE-/- mice [3] = assay: Glucose tolerance testing and serum insulin in high fat diet ApoE-/- mice; type: in vivo, mouse
Text: One example of a disease that is particularly amenable to treatment using a peptide of the present developments may be type 2 diabetes. In type 2 diabetes, glucose tolerance is reduced, insulin sensitivity is decreased, and plasma insulin levels are increased. Consequently, control of inflammatory cells and cell signaling via CD40-CD154 interaction may be able to be used to control, modulate, reduce and/or reverse type 2 diabetes symptoms that are characterized as by glucose intolerance, insulin resistance, and increased plasma insulin levels. Several murine models of T2D and/or atherosclerosis have been developed. For initial studies, ApoE−/− mice were selected due to their ability to develop type 2 diabetes from a high fat diet. Glucose tolerance and insulin testing were performed on all of the mice. The mice were administered the 6-mer peptide (SEQ ID NO:29) at a rate of 1 mg/kg weekly via I.V, injection and monitored. […] Thus, one embodiment of the present developments is a method to prevent type 2 diabetes in an individual at risk for developing type 2 diabetes, the method comprising administering to the individual a peptide to selectively bind to a CD40 expressing cell. In such an embodiment, the peptide may be selected from SEQ ID NOS: 3-9 and 24-30.
ApoE−/− mice were fed a 60% high fat diet (research diet) for 1 week. A select population of mice were then injected with 6-mer peptide at a dose of 1 mg/kg and others were untreated and tracked as controls. Glucose tolerance testing (GTT) was performed by fasting 6 hours, followed by intraperitoneal injection of 1 g/kg body weight glucose in water. Both blood glucose and blood serum insulin were measured at 0, 15 minutes, 30 minutes, 60 minutes, and 2 hours.

NOD mice [4] = assay: Development of diabetes in NOD mice treated with CD154 peptides; type: in vivo, mouse; conditions: 25 ug (1 mg/kg) tail vein weekly from 6 weeks of age
Protocol: (§1) Peptides were designed based on the amino acid sequence of mouse CD154 protein (SEQ ID NO:1) in the SwissPro database. […] Weekly after the initial injection, another 25 ug of peptide (or 100 ul of saline in the case of the Control mice) was injected into the tail vein. At 10 weeks of age, mice were monitored for diabetes, as indicated by a blood glucose level greater than 250 mg/dL for three consecutive days. During this time, blood was also taken from the tail vein, or by sub-mandibular venal puncture, and the level of CD4+ and CD8+ cells determined by flow cytometry using antibodies for CD4 protein and CD8 protein.

blood cells = assay: Binding of biotin-conjugated 15-mer peptide to whole blood cells, HRP-avidin absorbance at 405 nm; set-up: species or system human; conditions: 1 ml whole blood
Protocol: 1 ml of whole blood was obtained from each individual and incubated with biotin-conjugated, 15-mer peptide. The cells were then exposed to horseradish peroxidase (HRP)-avidin, washed and the absorbance at 405 nm determined using a spectrophotometer.

ApoE deficient mice = assay: Atherosclerosis in ApoE deficient mice, lesser curvature of the aortic arch; type: in vivo, mouse; conditions: 1 mg/kg IV three times a week from 9 weeks of age, normal chow
Protocol: ApoE deficient mice on a normal chow diet were selected to receive a dose of 1 mg/kg of the 15-mer peptide (SEQ ID NO: 7) by IV tail injection, three times a week over a period of […], beginning at 9 weeks of age and also utilized a control. At 25 weeks, the animals were euthanized, weighed, and then had blood, spleen, and pancreas removed for analysis. The subjects were then perfused through cardiac puncture with 4% paraformaldehyde. Aortic arches were dissected, dehydrated in sucrose gradient and then flash frozen.
FIG. 17 provides an example of the lesser curvature of the aortic arch, defined proximally from the aortic outflow (AO). Of the segments seen in the trichrome stain, an intimal distance of […] was measured distally. The aortic-arch wall area subtended by this 2.5 mm stretch of the intima was calculated for each section of all mice, with maximal area of the inner-aortic-arch wall of each mouse used to compute averages per group. The luminal surface (L), aortic arch (AO), and innominate artery (I) are labelled in this FIG. 17.
Plaque was subdivided based on morphology of early lesions (observable as fatty streaks containing macrophage derived foam cells with varying degrees of lipid accumulation) compared with more advanced fibroatheromas (containing varying degrees of lipid or necrotic core and fibrous caps). […]

NOD mice [5] = assay: CD4/CD8 ratio in blood of treated NOD mice by flow cytometry; type: in vivo, mouse; conditions: 25 ug (1 mg/kg) tail vein weekly
Protocol: as §1

ApoE-/- mice [6] = assay: Existing atherosclerotic disease in ApoE-/- mice, plaque cap and core measurements; type: in vivo, mouse; conditions: 1 mg/kg IV once a week for 4 weeks from 20 weeks of age
Protocol: In this study, six ApoE−/− mice received a normal chow diet from 0 to 20 weeks of age. At 20 weeks of age, three mice were randomly assigned to receive dose of 1 mg/kg of KGYY15 (15-mer-SEQ ID NO:7) by IV tail injection, once a week for a period of 4 weeks. Control mice received vehicle only. After 4 weeks of treatment, animals were euthanized then perfused through cardiac puncture with 4% paraformaldehyde. Aortic arches were dissected in surcrose gradient and flash frozen. Approximately fifty, 8 um longitudinal sections were obtained per mouse. Slides were treated with trichrome stain and analyzed using cellSens software for measurements. Total plaque was measured including 2.5 mm lesser curvature and innominate artery.

NOD mice [7] = assay: Insulin granulation of the pancreas in NOD mice, aldehyde/fuschsin stain; type: in vivo, mouse; conditions: six weeks after reversal of hyperglycemia; versus irrelevant peptide
Protocol: (§2) At the onset of diabetes, six NOD mice were injected with […] of the 15-mer peptide, resulting in the reversal of hyperglycemia in 80% of the recipients. Six weeks after reversal of hyperglycemia, mice were sacrificed, and the pancreas removed for analysis. The pancreas was fixed, sectioned and then stained using an aldehyde/fuschsin stain that allows detection of insulin granules. Granulation of the tissue was scored as follows: 4=completely granulated; 3=75% of islet granulated; 2=50% of islet granulated, and peri-insulitis; 1=25% of islet granulated; 0=no insulin granules detected.

[8] = Clot study of whole human blood in the presence of peptide; conditions: dosing levels similar to murine studies
Protocol: Whole human blood was administered the peptide in accordance with similar dosing levels to those used for murine studies.

B cells = assay: Binding of FITC-labeled 15-mer peptide to B cells, flow cytometry; set-up: species or system mouse; conditions: spleen B cells of NOD mice, 90% CD40 positive
Protocol: B cells were isolated from the spleens of NOD mice. Sorted MHC-II+ cells were purified from total lymphocytes. Cells were stained with FITC-labeled 15 mer peptide, anti-CD40, and B cell markers CD19 and CD21. MHC-II+ cells were gated for CD19+ and CD21+ and then 15-mer peptide versus CD40 antibody was measured.

CD40+ T-cells = assay: Binding of FITC-labeled 15-mer peptide to Th40 cells, flow cytometry; set-up: species or system mouse; conditions: lymphocytes of 9 week old NOD mice
Protocol: Total lymphocytes were isolated from 9 week old NOD mice. The lymphocytes were incubated with anti-CD4, anti-CD8, anti-CD40 and an FITC-labeled 15-mer peptide, and then analyzed by flow cytometry. Cells were gated for CD4 (both CD4hi and CD4lo populations were included) and CD40 versus the 15-mer peptide.

NOD mice [9] = assay: Reversal of hyperglycemia in newly diabetic NOD mice; type: in vivo, mouse
Protocol: Six mice from Example 1 that were not treated were allowed to subsequently develop diabetes. These mice were injected intravenously with 100 ug of the 15-mer peptide. These mice were then given weekly injections of the 15-mer peptide into their tail veins, and their blood glucose levels monitored twice-weekly. The 15-mer peptide was administered for a total of ten weeks, after which the treatment was stopped.
as §2

[10] = high fat diet 16 weeks, 1 mg/kg IV once a week for 4 weeks
[11] = trichrome staining, Image Pro Plus analysis

Q: For `Cc1ccc(C(=O)Nc2ccc(S(=O)(=O)O)c3cc(S(=O)(=O)O)cc(S(=O)(=O)O)c23)cc1NC(=O)c1cccc(NC(=O)Nc2cccc(C(=O)Nc3cc(C(=O)Nc4ccc(S(=O)(=O)O)c5cc(S(=O)(=O)O)cc(S(=O)(=O)O)c45)ccc3C)c2)c1` [suramin], which “CD154-induced proliferation of human B cells” value (human B cells) is on record?
A: Its value is “prevented”.

Q: For “AKKGYY [KGYY6, 6-mer peptide from CD154]”, which “lesion areas, en-face Sudan IV stain” value (ApoE-/- mice [1]; [10]) is on record?
A: The value was “significant reduction”.

Q: And the “plaque volume (area under the curve, Paigen method)” value (ApoE-/- mice [1]; [10])?
A: Its value is “reduction”.

Q: What about the “plaque composition: collagen” value (ApoE-/- mice [1]; [11]) of the same compound?
A: The value was “increased”.

Q: And the “plaque composition: smooth muscle content” value (ApoE-/- mice [1]; [11])?
A: Its value is “reduced”.

Q: And the “inflammatory cytokine production of IL2, INFγ, and IL17a” value (Th40 cells)?
A: The value was “affects”.

Q: And the “expression of GLUT4 in muscle tissue” value (GLUT4)?
A: The value was “increased expression”.

Q: And the “expression of GLUT4 in white adipose tissue” value (GLUT4)?
A: Its value is “increase in expression”.

Q: And the “reduction in LDL cholesterol values versus untreated mice” value (ApoE-/- mice [2])?
A: The value was greater than 50%.

Q: And the “insulin sensitivity compared to controls” value (ApoE-/- mice [3]; 1 mg/kg)?
A: The value was “significantly improved”.

Q: What about the “plasma insulin levels compared to controls” value (ApoE-/- mice [3]; 1 mg/kg) of the same compound?
A: The value was “lowered”.

Q: And the “insulin resistance compared to controls” value (ApoE-/- mice [3]; 1 mg/kg weekly I.V.)?
A: The value was “improve”.

Q: What about the “glucose tolerance compared to controls” value (ApoE-/- mice [3]; 1 mg/kg, GTT 1 g/kg glucose i.p. after 6 hours fasting) of the same compound?
A: Its value is “significantly increased”.

Q: With “VLQWAKKGYYTMK [13-mer peptides, 13-mer peptide derived from the CD154 protein]” as the compound, how does the “development of diabetes (blood glucose greater than 250 mg/dL for three consecutive days)” value (NOD mice [4]) read?
A: Its value is “significant effects on the development of diabetes”.

Q: Which “development of diabetes (blood glucose greater than 250 mg/dL for three consecutive days)” value (NOD mice [4]) does the source give for “VLQWAKKGYYTMKSN (VLQWAKKGYYTMKSK) [15-mer peptide, 15-mer peptide derived from the mouse CD154 protein]” here?
A: The value was “prevented the onset of diabetes”.

Q: And the “peptide binding activity of blood cells, type-I diabetes patients versus non-diabetic controls” value (blood cells)?
A: The value was “higher”.

Q: What about the “total area of the 2.5 mm segment of the aortic-arch wall” value (ApoE deficient mice) of the same compound?
A: Its value is “substantially reduced”.

Q: And the “total number of plaque (early lesions and advanced plaque)” value (ApoE deficient mice)?
A: Its value is “significantly decreased”.

Q: And the “compromise of the immune system as determined by the CD4/CD8 ratio” value (NOD mice [5])?
A: The value was “did not result in compromise of the immune system”.

Q: What about the “average cap width (cap size)” value (ApoE-/- mice [6]) of the same compound?
A: Its value is “greater”.

Q: What about the “average core width (core size/plaque size)” value (ApoE-/- mice [6]) of the same compound?
A: The value was “decreased”.

Q: What about the “cap to core ratio of advanced plaques” value (ApoE-/- mice [6]) of the same compound?
A: Its value is “reduced”.

Q: What about the “number of individual early plaques and advanced plaques” value (ApoE-/- mice [6]) of the same compound?
A: The value was “reduced”.

Q: What about the “insulin granules in the pancreas” value (NOD mice [7]) of the same compound?
A: Its value is “preserved insulin granules in the majority of the mice”.

Q: And the “clotting of whole human blood” value [8]?
A: Its value is “does not modify or change the clotting”.

Q: And the “B cells that bound the peptide” value (B cells)?
A: The value was 8%.

Q: What about the “CD40+ T-cells that bind the peptide” value (CD40+ T-cells) of the same compound?
A: The value was 90%.

Q: And the “reversal of hyperglycemia in already diabetic mice” value (NOD mice [9]; 100 ug IV then weekly injections for ten weeks)?
A: Its value is “can reverse hyperglycemia”.

Q: And the “recipients with reversal of hyperglycemia” value (NOD mice [9]; six NOD mice injected with 100 ug/ml at the onset of diabetes)?
A: The value was 80%.

Q: And the “return of hyperglycemia after cessation of the treatment” value (NOD mice [9]; treatment stopped after ten weeks)?
A: Its value is no more than 5 weeks.

Reference: US12428465B2, “Therapeutic peptides and methods for treating type 2 diabetes” (OP-T LLC, priority 2018, dated 2025)
